Measured values published in ChEMBL document CHEMBL1201862, “PubChem BioAssay data set” (2004).
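All cell lines were grown in 96-well plates and treated with compound for 48 hours. GI50 = concentration required for 50% inhibition of growth.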 Calls of active or inactive are those of the source. Cut-off read from the data, not from the text of the source: active = GI50 up to about 1.1 µM and inactive = higher.

Legend:
Assay in all cases: DTP human tumour cell line panel, 48 h
[1] = tested on: UACC-257
[2] = tested on: HOP-92
[3] = tested on: M14
[4] = tested on: 786-0
[5] = tested on: SK-OV-3
[6] = tested on: HCT-116
[7] = tested on: NCI-H23
[8] = tested on: OVCAR-5
[9] = tested on: NCI-H460
[10] = tested on: MCF7
[11] = tested on: BT-549
[12] = tested on: OVCAR-8
[13] = tested on: UO-31
[14] = tested on: Malme-3M
[15] = tested on: SF-539
[16] = tested on: A498
[17] = tested on: HT-29
[18] = tested on: NCI-H226
[19] = tested on: LOX IMVI
[20] = tested on: T47D

Measured: GI50

C1=N\CCN2CCN(CC/N=C\c3ccccc3OCc3cccc(n3)COc3ccccc3/1)CC2
inactive: [1] 10.5 µM | [2] 3.89 µM | [3] 7.74 µM | [4] 5.13 µM | [5] 16.9 µM | [6] 2.61 µM | [7] 14.6 µM | [8] 9.18 µM | [9] 38.2 µM | [10] 1.52 µM | [11] 9.75 µM | [12] 11.8 µM | [13] 13.8 µM | [14] 6.12 µM | [15] 3 µM | [16] 40.9 µM | [17] 8.2 µM

N=C(N)NS(=O)(=O)c1ccc(NC(=O)c2c3ccccc3nc3ccccc23)cc1
inactive: [1] > 100 µM | [2] > 100 µM | [3] > 100 µM | [4] > 100 µM | [5] > 100 µM | [6] > 100 µM | [7] > 100 µM | [8] > 100 µM | [9] > 100 µM | [10] > 100 µM | [11] > 100 µM | [18] 43.1 µM | [12] > 100 µM | [13] > 100 µM | [14] > 100 µM | [15] > 100 µM | [16] > 100 µM | [17] > 100 µM | [19] > 100 µM

O=C(Nc1cccc(C(F)(F)F)c1)c1cc(Br)cc(Br)c1O [FLUOROSALAN]
inactive: [1] 2.52 µM | [2] 2.27 µM | [3] 4.94 µM | [4] 3.63 µM | [5] 2.81 µM | [6] 2.32 µM | [7] 2.22 µM | [8] 4.76 µM | [9] 3.02 µM | [10] 2.89 µM | [18] 3.51 µM | [12] 3.09 µM | [13] 2.35 µM | [20] 3.24 µM | [15] 3.55 µM | [17] 3.91 µM | [19] 2.06 µM

CC(C)(C)OC(=O)NC(Cc1ccc(OC(C)(C)C)cc1)C(=O)N[C@H]1CCC[C@H]1C(=O)NC(Cc1ccccc1)C(=O)N1CCCC1C(N)=O (some centres undefined)
inactive: [1] > 100 µM | [2] > 100 µM | [3] > 100 µM | [4] > 100 µM | [5] > 100 µM | [6] > 100 µM | [7] > 100 µM | [8] > 100 µM | [9] > 100 µM | [10] > 100 µM | [18] > 100 µM | [12] > 100 µM | [13] > 100 µM | [20] > 100 µM | [14] > 100 µM | [15] > 100 µM | [16] > 100 µM | [17] > 100 µM | [19] > 100 µM

O=C1c2ccccc2-c2nnc3c(c21)-c1ccccc1C3
inactive: [1] > 100 µM | [2] > 100 µM | [3] > 100 µM | [4] > 100 µM | [5] > 100 µM | [6] 64 µM | [7] > 100 µM | [8] > 100 µM | [9] 29.2 µM | [10] 64.6 µM | [18] 43.5 µM | [12] 44.2 µM | [13] 23.2 µM | [20] > 100 µM | [14] > 100 µM | [15] 93.8 µM | [17] 48 µM

CCCC[C@@H]1CCN2C[C@@H](O)[C@@H](O)[C@H]2[C@@H]1O
inactive: [1] > 100 µM | [2] > 100 µM | [3] > 100 µM | [4] > 100 µM | [5] > 100 µM | [6] > 100 µM | [7] > 100 µM | [8] > 100 µM | [9] > 100 µM | [10] > 100 µM | [11] > 100 µM | [18] > 100 µM | [12] > 100 µM | [13] > 100 µM | [14] > 100 µM | [15] > 100 µM | [16] > 100 µM | [17] > 100 µM | [19] > 100 µM

Cc1ccccc1/N=N/c1ccc(/N=N/c2c(O)ccc3cc(S(=O)(=O)O)cc(S(=O)(=O)O)c23)c(C)c1
inactive: [1] > 100 µM | [2] > 100 µM | [3] > 100 µM | [4] > 100 µM | [5] > 100 µM | [6] > 100 µM | [7] > 100 µM | [8] > 100 µM | [9] > 100 µM | [10] > 100 µM | [11] > 100 µM | [18] > 100 µM | [12] > 100 µM | [13] > 100 µM | [14] > 100 µM | [15] > 100 µM | [17] > 100 µM

CC(=O)Oc1ccc(/C=C/C(=O)NCC(NC(=O)/C=C/c2ccc(OC(C)=O)c(OC(C)=O)c2)C(=O)O)cc1OC(C)=O (centres undefined)
inactive: [1] > 100 µM | [2] > 100 µM | [3] > 100 µM | [4] > 100 µM | [6] > 100 µM | [7] > 100 µM | [8] > 100 µM | [9] > 100 µM | [10] > 100 µM | [11] > 100 µM | [18] > 100 µM | [12] > 100 µM | [13] > 100 µM | [14] > 100 µM | [15] > 100 µM | [16] > 100 µM | [17] 50.8 µM | [19] 97.3 µM

Cc1ccc(S(=O)(=O)NNC(=S)Nc2cccc3ccccc23)cc1
inactive: [1] 13.8 µM | [2] 30.6 µM | [3] 43.2 µM | [4] 14.2 µM | [5] 43.3 µM | [6] 55.2 µM | [7] 32.3 µM | [8] 89.3 µM | [9] > 100 µM | [10] 31.6 µM | [18] 29.4 µM | [12] 37.5 µM | [13] 43.4 µM | [20] 39.5 µM | [14] 33.3 µM | [15] 80.4 µM | [16] 39.1 µM | [17] 56.5 µM

CN(C)/N=C1\C=C2CC[C@H](O[Si](C)(C)C(C)(C)C)[C@@]2(C)CC1
inactive: [1] 16.7 µM | [2] 15.2 µM | [3] 18.2 µM | [4] 18 µM | [5] 24.9 µM | [7] 23.2 µM | [8] 16.9 µM | [9] 17.3 µM | [10] 15.6 µM | [18] 20.3 µM | [12] 16.9 µM | [13] 16.3 µM | [20] 12.2 µM | [14] 15.6 µM | [15] 26.2 µM | [16] 17.8 µM | [17] 19 µM | [19] 18.3 µM

C/C(CC(=O)Nc1ccc([N+](=O)[O-])cc1)=N\NC(N)=O
inactive: [1] > 100 µM | [2] > 100 µM | [3] > 76.6 µM | [4] > 100 µM | [5] > 100 µM | [6] > 57.8 µM | [7] > 100 µM | [8] > 100 µM | [9] > 100 µM | [18] > 100 µM | [12] > 44.4 µM | [13] > 100 µM | [14] > 100 µM | [15] > 100 µM | [16] > 100 µM | [17] > 100 µM | [19] > 64.7 µM

Cc1ccc2c(c1)SC(c1cc3c(cc1Br)OCO3)S2 (centres undefined)
inactive: [1] > 31.6 µM | [2] 6.22 µM | [3] > 31.6 µM | [4] > 31.6 µM | [5] > 31.6 µM | [6] 23.9 µM | [7] > 31.6 µM | [8] > 31.6 µM | [9] > 31.6 µM | [18] > 31.6 µM | [12] > 31.6 µM | [13] 19.7 µM | [14] > 31.6 µM | [15] > 31.6 µM | [16] > 31.6 µM | [17] 18.7 µM | [19] > 31.6 µM

Cc1cccc(C)c1NC(=O)CCc1nnc2s/c(=C\c3ccc(Cl)cc3)c(=O)n12
inactive: [1] > 100 µM | [2] > 100 µM | [3] > 100 µM | [4] 44 µM | [5] 31.8 µM | [6] 25.2 µM | [7] > 100 µM | [8] > 100 µM | [9] > 100 µM | [18] 97.5 µM | [12] > 100 µM | [13] > 100 µM | [14] > 100 µM | [15] 40.6 µM | [16] > 100 µM | [17] > 100 µM | [19] > 100 µM

CC(=O)O[C@H]1CC[C@@]2(C)C(=CC[C@H]3C(CC#N)[C@@](C)(C#N)CCC32)C1 (some centres undefined)
inactive: [1] > 100 µM | [2] 16.1 µM | [3] > 100 µM | [4] > 100 µM | [5] > 100 µM | [6] > 100 µM | [7] > 100 µM | [8] > 100 µM | [9] > 100 µM | [18] > 100 µM | [12] > 100 µM | [13] > 100 µM | [14] > 100 µM | [15] > 100 µM | [16] 38.5 µM | [17] > 100 µM | [19] > 100 µM

CCOC(=O)c1c(/C=N\Nc2ccccc2)nc2ccccc2c1-c1ccccc1
inactive: [1] 70.3 µM | [2] 45.4 µM | [3] 36.7 µM | [4] 40.6 µM | [5] > 100 µM | [6] 42 µM | [7] 39.7 µM | [8] > 100 µM | [9] 37.8 µM | [18] 45.7 µM | [12] 32.1 µM | [13] 34.4 µM | [14] 35.1 µM | [15] 68.5 µM | [16] 60.4 µM | [17] 37.6 µM | [19] 35.4 µM
